Test results as given in PubChem BioAssay (NCI).
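A five-concentration, 48-hour dose response in 96-well plates underlies each endpoint, interpolated linearly between surrounding concentrations. At the TGI there is no net growth.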

Key:
Assay in all cases: NCI tumour cell line growth inhibition, 48 h
786-0 renal = test system: 786-0 renal
A549 NSCLC = test system: A549 NSCLC
ACHN renal = test system: ACHN renal
BT-549 breast = test system: BT-549 breast
CAKI-1 renal = test system: CAKI-1 renal
CCRF-CEM leukemia = test system: CCRF-CEM leukemia
COLO 205 colon = test system: COLO 205 colon
DU-145 prostate = test system: DU-145 prostate
EKVX NSCLC = test system: EKVX NSCLC
HCC-2998 colon = test system: HCC-2998 colon
HCT-116 colon = test system: HCT-116 colon
HCT-15 colon = test system: HCT-15 colon
HL-60(TB) leukemia = test system: HL-60(TB) leukemia
HOP-62 NSCLC = test system: HOP-62 NSCLC
HOP-92 NSCLC = test system: HOP-92 NSCLC
HS 578T breast = test system: HS 578T breast
HT29 colon = test system: HT29 colon
IGROV1 ovarian = test system: IGROV1 ovarian
K-562 leukemia = test system: K-562 leukemia
KM12 colon = test system: KM12 colon
LOX IMVI melanoma = test system: LOX IMVI melanoma
M14 melanoma = test system: M14 melanoma
MALME-3M melanoma = test system: MALME-3M melanoma
MCF7 breast = test system: MCF7 breast
MDA-MB-231 breast = test system: MDA-MB-231 breast
MDA-MB-435 = test system: MDA-MB-435
MDA-N = test system: MDA-N
MOLT-4 leukemia = test system: MOLT-4 leukemia
NCI-H226 lung = test system: NCI-H226 lung
NCI-H23 lung = test system: NCI-H23 lung
NCI-H460 lung = test system: NCI-H460 lung
NCI-H522 lung = test system: NCI-H522 lung
NCI/ADR-RES ovarian = test system: NCI/ADR-RES ovarian
OVCAR-3 ovarian = test system: OVCAR-3 ovarian
OVCAR-4 ovarian = test system: OVCAR-4 ovarian
OVCAR-5 ovarian = test system: OVCAR-5 ovarian
OVCAR-8 ovarian = test system: OVCAR-8 ovarian
PC-3 prostate = test system: PC-3 prostate
RPMI-8226 leukemia = test system: RPMI-8226 leukemia
RXF 393 renal = test system: RXF 393 renal
SF-268 CNS = test system: SF-268 CNS
SF-295 CNS = test system: SF-295 CNS
SF-539 CNS = test system: SF-539 CNS
SK-MEL-2 melanoma = test system: SK-MEL-2 melanoma
SK-MEL-28 melanoma = test system: SK-MEL-28 melanoma
SK-MEL-5 melanoma = test system: SK-MEL-5 melanoma
SK-OV-3 ovarian = test system: SK-OV-3 ovarian
SN12C renal = test system: SN12C renal
SNB-19 CNS = test system: SNB-19 CNS
SNB-75 CNS = test system: SNB-75 CNS
SR leukemia = test system: SR leukemia
SW-620 colon = test system: SW-620 colon
T-47D breast = test system: T-47D breast
TK-10 renal = test system: TK-10 renal
U251 CNS = test system: U251 CNS
UACC-257 melanoma = test system: UACC-257 melanoma
UACC-62 melanoma = test system: UACC-62 melanoma
UO-31 renal = test system: UO-31 renal

CCN(CC)C(=O)Cn1c(C)cc2ccccc21
TGI (786-0 renal): > 100 µM
TGI (A549 NSCLC): > 100 µM
TGI (ACHN renal): > 100 µM
TGI (BT-549 breast): > 100 µM
TGI (CAKI-1 renal): > 100 µM
TGI (CCRF-CEM leukemia): > 100 µM
TGI (COLO 205 colon): > 100 µM
TGI (DU-145 prostate): > 100 µM
TGI (EKVX NSCLC): > 100 µM
TGI (HCC-2998 colon): > 100 µM
TGI (HCT-116 colon): > 100 µM
TGI (HCT-15 colon): > 100 µM
TGI (HL-60(TB) leukemia): > 100 µM
TGI (HOP-62 NSCLC): > 100 µM
TGI (HOP-92 NSCLC): > 100 µM
TGI (HS 578T breast): > 100 µM
TGI (HT29 colon): > 100 µM
TGI (IGROV1 ovarian): > 100 µM
TGI (K-562 leukemia): > 100 µM
TGI (KM12 colon): > 100 µM
TGI (LOX IMVI melanoma): > 100 µM
TGI (M14 melanoma): > 100 µM
TGI (MALME-3M melanoma): > 100 µM
TGI (MCF7 breast): > 100 µM
TGI (MDA-MB-231 breast): > 100 µM
TGI (MDA-MB-435): > 100 µM
TGI (MDA-N): > 100 µM
TGI (MOLT-4 leukemia): > 100 µM
TGI (NCI-H226 lung): > 100 µM
TGI (NCI-H23 lung): > 100 µM
TGI (NCI-H460 lung): > 100 µM
TGI (NCI-H522 lung): > 100 µM
TGI (NCI/ADR-RES ovarian): > 100 µM
TGI (OVCAR-3 ovarian): > 100 µM
TGI (OVCAR-4 ovarian): > 100 µM
TGI (OVCAR-5 ovarian): > 100 µM
TGI (OVCAR-8 ovarian): > 100 µM
TGI (PC-3 prostate): > 100 µM
TGI (RPMI-8226 leukemia): > 100 µM
TGI (RXF 393 renal): > 100 µM
TGI (SF-268 CNS): > 100 µM
TGI (SF-295 CNS): > 100 µM
TGI (SF-539 CNS): > 100 µM
TGI (SK-MEL-2 melanoma): > 100 µM
TGI (SK-MEL-28 melanoma): > 100 µM
TGI (SK-MEL-5 melanoma): > 100 µM
TGI (SK-OV-3 ovarian): > 100 µM
TGI (SN12C renal): > 100 µM
TGI (SNB-19 CNS): > 100 µM
TGI (SNB-75 CNS): > 100 µM
TGI (SR leukemia): > 100 µM
TGI (SW-620 colon): > 100 µM
TGI (T-47D breast): > 100 µM
TGI (TK-10 renal): > 100 µM
TGI (U251 CNS): > 100 µM
TGI (UACC-257 melanoma): > 100 µM
TGI (UACC-62 melanoma): > 100 µM
TGI (UO-31 renal): > 100 µM

O=C(NNC(=S)Nc1cccc(Cl)c1)c1cc(-c2ccccc2)nc2ccccc12
TGI (786-0 renal): 31.2 µM
TGI (A549 NSCLC): 32.3 µM
TGI (ACHN renal): 31.8 µM
TGI (BT-549 breast): 34.3 µM
TGI (CAKI-1 renal): 43.1 µM
TGI (CCRF-CEM leukemia): 32.2 µM
TGI (COLO 205 colon): 29.2 µM
TGI (DU-145 prostate): 29.5 µM
TGI (HCC-2998 colon): 28.2 µM
TGI (HCT-116 colon): 30.3 µM
TGI (HCT-15 colon): 29.6 µM
TGI (HOP-62 NSCLC): 32.1 µM
TGI (HOP-92 NSCLC): 30.2 µM
TGI (HS 578T breast): 41.9 µM
TGI (HT29 colon): 45.3 µM
TGI (IGROV1 ovarian): 47 µM
TGI (K-562 leukemia): > 100 µM
TGI (KM12 colon): 49 µM
TGI (M14 melanoma): 33.7 µM
TGI (MALME-3M melanoma): 29.9 µM
TGI (MCF7 breast): 23 µM
TGI (MDA-MB-231 breast): 33.2 µM
TGI (MDA-MB-435): 33.4 µM
TGI (MDA-N): 36.5 µM
TGI (MOLT-4 leukemia): 74.6 µM
TGI (NCI-H226 lung): 40.5 µM
TGI (NCI-H23 lung): 34.4 µM
TGI (NCI-H460 lung): 39.6 µM
TGI (NCI-H522 lung): 34.9 µM
TGI (NCI/ADR-RES ovarian): 56.2 µM
TGI (OVCAR-3 ovarian): 34.3 µM
TGI (OVCAR-4 ovarian): 28.7 µM
TGI (OVCAR-5 ovarian): 36 µM
TGI (OVCAR-8 ovarian): 53.3 µM
TGI (PC-3 prostate): 29.3 µM
TGI (RPMI-8226 leukemia): 75.3 µM
TGI (RXF 393 renal): 32.7 µM
TGI (SF-268 CNS): 35.4 µM
TGI (SF-295 CNS): 24.5 µM
TGI (SF-539 CNS): 29.8 µM
TGI (SK-MEL-2 melanoma): 27.7 µM
TGI (SK-MEL-28 melanoma): 26.5 µM
TGI (SK-MEL-5 melanoma): 33.2 µM
TGI (SK-OV-3 ovarian): 34.5 µM
TGI (SN12C renal): 37.1 µM
TGI (SNB-19 CNS): 33.9 µM
TGI (SNB-75 CNS): 66.5 µM
TGI (SR leukemia): 49.9 µM
TGI (SW-620 colon): 31.3 µM
TGI (T-47D breast): 36.4 µM
TGI (TK-10 renal): 30.8 µM
TGI (U251 CNS): 30.4 µM
TGI (UACC-257 melanoma): 31.5 µM
TGI (UACC-62 melanoma): 26.7 µM
TGI (UO-31 renal): 29.8 µM
